Columns and labels:
mice = system: mice; parameters: method as in McGovren et al, 1984; conditions: ref McGovren et al, 1984; cited from earlier work
rabbits = system: rabbits; parameters: method as in McGovren et al, 1984; conditions: ref McGovren et al, 1984; cited from earlier work
[1] = Plasma pharmacokinetics of Carzelesin and metabolites by HPLC, first course; assay type: in vivo, human; conditions: for mean concentration of metabolite: highest dose level 300 of Carzelesin
Experimental: Carzelesin is a cyclopropylpyrroloindole analogue which acts as a DNA-sequence-specific alkylating agent. In this phase I study, Carzelesin was given as a 4-weekly 10 min IV infusion to 51 patients with advanced solid tumours. Patients received a median of two courses (range 1–5) at one of nine dose levels: 24, 48, 96, 130, 150, 170, 210, 250 and 300 μg m^−2. According to NCI-CTC criteria, non-haematological toxicities (grade 1/2) included fever, nausea and vomiting, mucositis and anorexia, none of which was clearly dose related. The dose-limiting toxicity was haematological and consisted mainly of neutropenia and to a lesser extent thrombocytopenia. From the dose level 150 μg m^−2, the haematological toxicity (particularly thrombocytopenia) was delayed in onset, prolonged and cumulative in some patients. In several courses, double WBC nadirs occurred. The maximum tolerated dose for a single course was 300 μg m^−2. From the dose level 170 μg m^−2, the intended dose intensity could not be delivered to most patients receiving > 2 courses owing to cumulative haematological toxicity. The dose level with the best dose intensity for multiple courses was 150 μg m^−2. The pharmacokinetics of Carzelesin and its metabolites (U-76,073; U-76,074) have been established in 31 patients during the first course of treatment using a HPLC method. […] The concentration of U-76,074 (active metabolite) extended above the lower limit of quantitation (1 ng ml^−1) for short periods of time and only at the higher dose levels. There was no relationship between neutropenia and the AUC of the prodrug Carzelesin, but the presence of detectable plasma levels of the active metabolite U-76,074 was usually associated with a substantial decrease in ANC values. © 1999 Cancer Research Campaign
Carzelesin (U-80,244, Figure 1A) is a cyclopropylpyrroloindole (CPI) prodrug analogue of CC-1065. […] CPI drugs are a class of compounds with unique DNA interactive properties. These agents fit into the minor groove region of DNA, and the CPI function in the molecule mediates a covalent binding to the N3 position of adenine in A-T rich regions, thus forming DNA adducts in a sequence selective fashion (Hurley et al, 1984; Reynolds et al, 1985). Three new CPIs have now been developed. […] Bizelesin differs from the classical CPI drugs in that it contains two chloromethyl functions, which are both converted (via intramolecular rearrangements) to the CPI alkyl- ating species that interact with DNA. Consequently, this agent is capable of forming DNA interstrand cross-links (Lee et al, 1991). […] Therefore, efforts were directed to modu- late the alkylation rate by the preparation of CPI prodrugs that would require chemical or enzymatic conversion. The activation of Carzelesin is a two-step reaction with hydrolysis of the phenyl- urethane substituent to form the intermediate compound U-76,073, followed by ring closure to form the active product U-76,074 (Figure 1B). […] This higher efficacy may be related to the pharmacologic features of the compound. […] Phase I study of Carzelesin (U-80,244) given (4-weekly) by intravenous bolus schedule A Awada1, CJA Punt2, MJ Piccart1, O Van Tellingen3, L Van Manen2, J Kerger1, Y Groot4, J Wanders4, J Verweij5 and DJTh Wagener2 1Institut Jules Bordet, Bd de Waterloo 125, 1000 Brussels, Belgium; 2University Hospital, Geert Grooteplein 8, Box 9101, 6500 HB Nijmegen, The Netherlands; 3The Netherlands Cancer Institute (Antoni van Leeuwenhoek Huis), Plesmanlaan 121, 1066 CX Amsterdam, The Netherlands; 4European Organization for Research and Treatment of Cancer - New Drug Development Office, PO Box 7057, Amsterdam, The Netherlands; 5Rotterdam Cancer Institute, Groene Hilledijk 301, 3075 EA Rotterdam, The Netherlands; on behalf of the EORTC Early Clinical Studies Group and EORTC NDDO Summary Carzelesin is a cyclopropylpyrroloindole analogue which acts as a DNA-sequence-specific alkylating agent. […]

[2] = system: granulocytes (ANC), white blood cells (WBC), platelets; test: Pharmacokinetic-pharmacodynamic relationship of bone marrow toxicity (%decr vs AUC); assay type: in vivo; conditions: plasma level of U-76,074 above 1 ng ml-1
From the text: Carzelesin (U-80,244, Figure 1A) is a cyclopropylpyrroloindole (CPI) prodrug analogue of CC-1065. […] CPI drugs are a class of compounds with unique DNA interactive properties. These agents fit into the minor groove region of DNA, and the CPI function in the molecule mediates a covalent binding to the N3 position of adenine in A-T rich regions, thus forming DNA adducts in a sequence selective fashion (Hurley et al, 1984; Reynolds et al, 1985). Three new CPIs have now been developed. […] Bizelesin differs from the classical CPI drugs in that it contains two chloromethyl functions, which are both converted (via intramolecular rearrangements) to the CPI alkyl- ating species that interact with DNA. Consequently, this agent is capable of forming DNA interstrand cross-links (Lee et al, 1991). […] Therefore, efforts were directed to modu- late the alkylation rate by the preparation of CPI prodrugs that would require chemical or enzymatic conversion. The activation of Carzelesin is a two-step reaction with hydrolysis of the phenyl- urethane substituent to form the intermediate compound U-76,073, followed by ring closure to form the active product U-76,074 (Figure 1B). […] This higher efficacy may be related to the pharmacologic features of the compound. […] Phase I study of Carzelesin (U-80,244) given (4-weekly) by intravenous bolus schedule A Awada1, CJA Punt2, MJ Piccart1, O Van Tellingen3, L Van Manen2, J Kerger1, Y Groot4, J Wanders4, J Verweij5 and DJTh Wagener2 1Institut Jules Bordet, Bd de Waterloo 125, 1000 Brussels, Belgium; 2University Hospital, Geert Grooteplein 8, Box 9101, 6500 HB Nijmegen, The Netherlands; 3The Netherlands Cancer Institute (Antoni van Leeuwenhoek Huis), Plesmanlaan 121, 1066 CX Amsterdam, The Netherlands; 4European Organization for Research and Treatment of Cancer - New Drug Development Office, PO Box 7057, Amsterdam, The Netherlands; 5Rotterdam Cancer Institute, Groene Hilledijk 301, 3075 EA Rotterdam, The Netherlands; on behalf of the EORTC Early Clinical Studies Group and EORTC NDDO Summary Carzelesin is a cyclopropylpyrroloindole analogue which acts as a DNA-sequence-specific alkylating agent. In this phase I study, Carzelesin was given as a 4-weekly 10 min IV infusion to 51 patients with advanced solid tumours. Patients received a median of two courses (range 1-5) at one of nine dose levels: […]. According to NCI-CTC criteria, non- haematological toxicities (grade 1/2) included fever, nausea and vomiting, mucositis and anorexia, none of which was clearly dose related. […] The concentration of U-76,074 (active metabolite) extended above the lower limit of quantitation (1 ng ml-1) for short periods of time and only at the higher dose levels. […]

patients = system: patients; parameters: method as in Sessa et al, 1994; conditions: day 1 q 4 weeks schedule; ref Sessa et al, 1994; cited from earlier work

For COc1c(O)c2c(c3cc(C(=O)N4CCc5c4c(O)c(OC)c4[nH]c(C(=O)N6CC7CC78C6=CC(=O)c6[nH]cc(C)c68)cc54)[nH]c13)CCN2C(N)=O (centres unmarked) [CC-1065], the “toxicity at sub-therapeutic doses” value (mice) is given as “delayed fatal toxicity” and the “toxicity at sub-therapeutic doses” value (rabbits) is given as “delayed fatal toxicity”.
With CCN(CC)c1ccc2cc(C(=O)Nc3ccc4[nH]c(C(=O)N5C[C@H]6C[C@@]67C5=CC(=O)c5[nH]cc(C)c57)cc4c3)oc2c1 [U-76,074] the “plasma level of active metabolite, for short periods of time in most patients” value ([1]; Carzelesin dose of 130 or higher) was “exceeded 1 ng ml-1”, the “plasma concentration of active metabolite in the majority of patients” value ([1]; from the Carzelesin dose level 96) was 1 to 2 ng/mL and the “mean concentration of metabolite” value [1] was 3 ng/mL. For the same compound, the “decrease in ANC values associated with detectable plasma levels” value [2] was “greater than 60%”.
For CCN(CC)c1ccc2cc(C(=O)Nc3ccc4[nH]c(C(=O)N5C[C@@H](CCl)c6c5cc(O)c5[nH]cc(C)c65)cc4c3)oc2c1 [U-76,073], the “mean concentration of metabolite” value [1] was 18 ng/mL.
For Cn1cc(NC(=O)c2cc(NC(=O)c3cc(NC(=O)c4ccc(N(CCCl)CCCl)cc4)cn3C)cn2C)cc1C(=O)NCCC(=N)N [Tallimustine], the dose-limiting toxicity (patients) is listed as “brief neutropenia”.

Reference: article PMC2362731, “Phase I study of Carzelesin (U-80,244) given (4-weekly) by intravenous bolus schedule” (British Journal of Cancer, 1999)
